From patent publication US9145354B2, “Pharmaceutical compounds” (priority 2011, dated 2015)
Like-named read-outs stand apart in the source and are kept apart here.

What was measured:
[1] = test system: HCV subgenomic replicon in Huh-7 cells; test: Replicon Assay (Example B), luciferase readout EC50; type: cell-based; details: Hepatitis C virus, Huh-7, replicon assay, luciferase readout; upper value of the cell pair; read-out: Assay B EC50
Protocol: The activities of compounds of the invention against HCV in a cellular environment were analysed using a replicon assay as described below.
(§1) Thus, Huh-7 cells persistently infected with an HCV-RNA construct (Bartenschlager, R. Hepatitis C replicons: potential role for drug development. Nature Rev. Drug Discov. 1, 911-916 (2002)) comprising: 5′ and 3′ non-translated regions (NTR); the non-structural genes NS3 to NS5b; as well as the G418 drug resistance gene, neomycin, (for selection of cells carrying HCV replicon RNA) fused to the firefly Luciferase reporter gene (pFKI3889Iuc-ubi-neo/NS3-3′/ET) were used to determine the cell based antiviral activity of compounds using luciferase activity as an indirect readout of HCV RNA load. In this assay […] huh-7 cells persistently infected with the HCV subgenomic replicon construct above were plated/well in a 96 well tissue culture plate. The cells were allowed to attach overnight in DMEM medium supplemented with 10% FBS 1% NEAA, and 250 μg/ml gentamicin. The following day the medium was replaced with 200 μl/well of fresh medium as described above lacking gentamicin. Semilog dilutions of compounds in medium were then added to triplicate wells (non-edge) of the cultured cells to give a 0.1% DMSO final concentration. Plates were then incubated at 37° C. in an atmosphere of 5% CO2 and air for 72 h. […] The plate was then read at 535 nm (excitation) and 590 nm (emission) on a SpectraMax Gemini reader (Molecular Devices) to determine the number of viable cells by measuring the conversion of rezasurin (Alamar blue) to resorufin in response to mitochondrial activity. In order to determine the antiviral effect of these compounds EC50 values were determined by measuring the luciferase activity of the cells. Alamar blue solution was removed from the wells and replaced with 100 μl/well of medium along with 100 μl/well of Bright-Glo reagent and incubated at room temperature for 5 minutes before transferring 100 μl/well to a white bottom 96 well plate to read in a luminometer as described in the Bright-Glo Luciferase Assay System protocol (promega).

full length NS3/4a = full length NS3/4a (Hepatitis C virus genotype 1b (isolate BK) (HCV), UniProt P26663); test: NS3 Protease Assay (Example A), FRET-based; type: biochemical
Chain of full length NS3/4a (P26663 1027-1657): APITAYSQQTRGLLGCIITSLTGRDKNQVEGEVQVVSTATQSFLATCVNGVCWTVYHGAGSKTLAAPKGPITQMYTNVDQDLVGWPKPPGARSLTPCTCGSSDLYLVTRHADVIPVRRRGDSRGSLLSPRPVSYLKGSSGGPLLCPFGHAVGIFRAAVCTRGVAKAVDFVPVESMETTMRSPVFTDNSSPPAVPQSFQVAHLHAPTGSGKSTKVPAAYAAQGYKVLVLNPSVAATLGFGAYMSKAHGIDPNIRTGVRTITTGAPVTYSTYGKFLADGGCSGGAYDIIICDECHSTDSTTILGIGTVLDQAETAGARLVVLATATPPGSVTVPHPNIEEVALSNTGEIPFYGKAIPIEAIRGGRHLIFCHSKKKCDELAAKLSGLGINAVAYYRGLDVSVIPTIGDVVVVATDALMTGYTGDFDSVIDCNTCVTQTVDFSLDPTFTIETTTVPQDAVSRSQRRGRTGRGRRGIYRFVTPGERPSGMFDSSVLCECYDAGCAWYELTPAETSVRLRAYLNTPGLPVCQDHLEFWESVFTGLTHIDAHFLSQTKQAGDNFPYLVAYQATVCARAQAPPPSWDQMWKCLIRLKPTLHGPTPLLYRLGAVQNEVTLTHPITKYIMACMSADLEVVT
Summary of the method: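 Initial rates were taken from fluorescence progress curves over 30 min at room temperature, and IC50 was fitted across replicates. In-house full-length NS3/4a cleaved a FRET peptide (5-FAMsp/QXL520) from the NS4A/B site. Medium: 50 mM Tris pH8, 20 mM DTT, 1% CHAPS, 10% glycerol, 5% DMSO.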

[2] = Replicon Assay (Example B), Alamar Blue cytotoxicity CC50; type: cell-based; details: human, lower value of the cell pair
Description: as §1

[3] = HCV NS3 protease assay, full length NS3/4a, read-out: Assay A IC50 (μM) average
[4] = read-out: IC50 against the protease activity of the full length NS3/4a

| Compound | EC50 [1] | IC50 (full length NS3/4a; [3]) | CC50 at 72 h [2] | IC50 (full length NS3/4a; [4]) |
| --- | --- | --- | --- | --- |
| CC[C@@H](N[C@@H](C)CC(N)=O)c1ccc(Cl)c(C(=O)c2ccc(C#N)nc2)c1F [Example 133, (3S)-3-{[(1R)-1-{4-chloro-3-[(6-cyanopyridin-3-yl)carbonyl]-2-fluorophenyl}propyl]-amino}butanamide] | > 3000 nM | 0.12 µM | > 3000 nM |  |
| CC[C@@H](N[C@@H](C)CC(N)=O)c1ccc(OC)c(C(=O)c2ccc(N)nc2)c1F [Example 252, (3S)-3-{[(1R)-1-{3-[(6-aminopyridin-3-yl)carbonyl]-2-fluoro-4-methoxyphenyl}propyl]amino}butanamide] | 130 nM | 0.18 µM | > 1000 nM |  |
| CC[C@@H](N[C@@H](C)CC(N)=O)c1ccc(Cl)c(C(=O)c2ccc(N)cn2)c1F [Example 149, (3S)-3-{[(1R)-1-{3-[(5-aminopyridin-2-yl)carbonyl]-4-chloro-2-fluorophenyl}propyl]amino}-butanamide] | 39 nM | 0.2 µM | > 10000 nM |  |
| [2H]C([2H])([2H])C([2H])([2H])[C@@H](N[C@@H](C)CC(N)=O)c1ccc(Cl)c(C(=O)c2ccc(N)nc2)c1F [Example 265, (3S)-3-{[(1R)-1-{3-[(6-aminopyridin-3-yl)carbonyl]-4-chloro-2-fluorophenyl}(2,2,3,3,3-deutero)propyl]amino}-butanamide] | 25 nM | 0.13 µM | > 3000 nM |  |
| CC[C@@H](N[C@@H](C)CC(N)=O)c1ccc(OC)c(C(=O)c2cccc(C#N)c2)c1F [Example 276, (3S)-3-{[(1R)-1-{3-[(3-cyanophenyl)carbonyl]-2-fluoro-4-methoxyphenyl}propyl]amino}butanamide] | 27 nM | 0.11 µM | > 3000 nM |  |
| CC[C@@H](NCCO)c1ccc(Cl)c(C(=O)c2ccccc2)c1F [Example 176, 2-{[(1R)-1-(3-benzoyl-4-chloro-2-fluorophenyl)propyl]amino}ethan-1-ol] | > 3000 nM | 0.29 µM | > 3000 nM |  |
| CC[C@@H](N)c1ccc(Cl)c(C(=O)c2ccc(C#N)cc2)c1F [Example 9, 4-({3-[(1R)-1-aminopropyl]-6-chloro-2-fluorophenyl}carbonyl)-benzonitrile] | > 3000 nM | 0.076 µM | > 3000 nM | < 1 µM |
| C[C@@H](CC(N)=O)N[C@@H](c1ccc(Cl)c(C(=O)c2ccc(N)cn2)c1F)C1CC1 [Example 237, (3S)-3-{[(R)-{3-[(5-aminopyridin-2-yl)carbonyl]-4-chloro-2-fluorophenyl}(cyclopropyl)methyl]amino}butanamide] | 47 nM | 0.31 µM | > 1000 nM |  |
| CC[C@H](NC(C)(C)CC(N)=O)c1ccc(Cl)c(C(=O)c2ccc(N)nc2)c1F [Example 251, 3-{[(1S)-1-{3-[(6-aminopyridin-3-yl)carbonyl]-4-chloro-2-fluorophenyl}propyl]amino}-3-methylbutanamide] | > 1000 nM | 0.3 µM | > 1000 nM |  |
| CC[C@H](N[C@@H](C)CO)c1ccc(Cl)c(C(=O)c2ccc(N)nc2)c1F [Example 177, (2S)-2-{[(1S)-1-{3-[(6-aminopyridin-3-yl)carbonyl]-4-chloro-2-fluorophenyl}propyl]amino}propan-1-ol] | > 3000 nM | 0.18 µM | > 3000 nM |  |
| CC[C@@H](N[C@@H](C)C1(C(N)=O)CC1)c1ccc(Cl)c(C(=O)c2cccnc2)c1F [Example 132, 1-[(1S)-1-{[(1R)-1-{4-chloro-2-fluoro-3-[(pyridin-3-yl)carbonyl]phenyl}propyl]amino}ethyl]cyclopropane-1-carboxamide] | 25 nM | 0.14 µM | > 3000 nM |  |
| [2H]C([2H])([2H])C([2H])([2H])[C@@H](N[C@@H](C)CC(N)=O)c1ccc(Cl)c(C(=O)c2ccc(N)c(Cl)c2)c1F [Example 267, (3S)-3-{[(1R)-1-{3-[(4-amino-3-chlorophenyl)carbonyl]-4-chloro-2-fluorophenyl}(2,2,3,3,3-deutero)propyl]amino}-butanamide] | 5 nM | 0.085 µM | > 3000 nM | < 1 µM |
| CC[C@@H](N[C@@H](C)CC(N)=O)c1ccc(Cl)c(C(=O)c2ccc(C#N)c(OC)c2)c1F [Example 235, (3S)-3-{[(1R)-1-{4-chloro-3-[(4-cyano-3-methoxyphenyl)carbonyl]-2-fluorophenyl}propyl]amino} butanamide] | 8.8 nM | 0.13 µM | > 1000 nM | < 1 µM |
| CC[C@@H](N)c1ccc(Cl)c(C(=O)c2ccccc2)c1F [Example 4, (1R)-1-(3-benzoyl-4-chloro-2-fluorophenyl)propan-1-amine] | > 10000 nM | 0.089 µM | > 10000 nM | < 1 µM |
| COc1cc(C(=O)c2c(Cl)ccc([C@H](N)C3CC3)c2F)ccc1C#N [Example 69, 4-({3-[(R)-amino(cyclopropyl)methyl]-6-chloro-2-fluorophenyl}carbonyl)-2-methoxybenzonitrile] | 33 nM | 0.052 µM | > 1000 nM |  |
| CC[C@@H](N[C@@H](C)CC(N)=O)c1ccc(Cl)c(C(=O)c2cccc(F)c2)c1F [Example 95, (3S)-3-{[(1R)-1-{4-chloro-2-fluoro-3-[(3-fluorophenyl)-carbonyl]-phenyl}propyl]-amino}-butanamide] | 41 nM | 0.085 µM | > 3000 nM |  |
| CC[C@@H](NCCC(N)=O)c1ccc(Cl)c(C(=O)c2cnc(N)cn2)c1F [Example 183, 3-{[(1R)-1-{3-[(5-Aminopyrazin-2-yl)carbonyl]-4-chloro-2-fluorophenyl}propyl]amino}propanamide] | 2200 nM | 0.5 µM | > 10000 nM |  |
| CC[C@@H](N[C@@H](C)CC(N)=O)c1ccc(Cl)c(C(=O)c2cccnc2)c1F [Example 93, (3S)-3-{[(1R)-1-{4-chloro-2-fluoro-3-[(pyridin-3-yl)carbonyl]phenyl}propyl]-amino}butanamide] | 510 nM | 0.14 µM | > 3000 nM |  |
| CC[C@@H](N[C@@H](C)CC(N)=O)c1ccc(Cl)c(C(=O)c2ccns2)c1F [Example 108, (3S)-3-{[(1R)-1-{4-chloro-2-fluoro-3-[(1,2-thiazol-5-yl)carbonyl]phenyl}propyl]-amino}butanamide] | 270 nM | 0.07 µM | > 3000 nM |  |
| CC[C@@H](N[C@@H](C)CC(N)=O)c1ccc(Cl)c(C(=O)c2ccc(C(=O)O)cc2)c1F [Example 144, 4-({3-[(1R)-1-{[(2S)-1-Carbamoylpropan-2-yl]amino}propyl]-6-chloro-2-fluorophenyl}carbonyl)-benzoic acid] | > 3000 nM | 1.2 µM | > 3000 nM | 1 to 5 µM |
| COc1cc(C(=O)c2c(Cl)ccc([C@H](N[C@@H](C)CC(N)=O)C3CC3)c2F)ccc1C#N [Example 275, (3S)-3-{[(R)-{4-chloro-3-[(4-cyano-3-methoxyphenyl)carbonyl]-2-fluorophenyl}(cyclopropyl)methyl]amino}butanamide] | 6.7 nM | 0.13 µM | > 3000 nM |  |
| C[C@@H](CC(N)=O)N[C@@H](c1ccc(Cl)c(C(=O)c2ccc3c(c2)OCC(=O)N3)c1F)C1CC1 [Example 270, (3S)-3-{[(R)-{4-chloro-2-fluoro-3-[(3-oxo-3,4-dihydro-2H-1,4-benzoxazin-7-yl)carbonyl]phenyl} (cyclopropyl)methyl]amino} butanamide] | 6 nM | 0.18 µM | > 3000 nM | < 1 µM |
| C[C@@H](CC(N)=O)N[C@H](CC1CC1)c1ccc(Cl)c(C(=O)c2ccc(N)nc2)c1F [Example 278, (3S)-3-{[(1R)-1-{3-[(6-aminopyridin-3-yl)carbonyl]-4-chloro-2-fluorophenyl}-2-cyclopropylethyl]amino} butanamide] | 27 nM | 0.5 µM | > 3000 nM |  |
| CC[C@@H](N[C@@H](C)CC(N)=O)c1ccc(Cl)c(C(=O)c2ccc(N)c(Cl)c2)c1F [Example 234, (3S)-3-{[(1R)-1-{3-[(4-amino-3-chlorophenyl)carbonyl]-4-chloro-2-fluorophenyl}propyl]amino} butanamide] | 2.8 nM | 0.14 µM | > 1000 nM | < 1 µM |
